From ChEMBL document CHEMBL1125532, “Synthesis and cholinergic properties of N-aryl-2-[[[5-[(dimethylamino)methyl]-2-furanyl]methyl]thio]ethylamino analogs of ranitidine” (J Med Chem, 1992)
Substitutions are numbered along the chain they refer to. The source made the active and inactive calls. The calls are words filed in the database; no cut-off is given here.

Columns and labels:
Acetylcholinesterase [1] = biological target: T1, Acetylcholinesterase (Homo sapiens, UniProt P22303); experiment: In vitro acetyl cholinesterase (AChE-I) inhibitory activity to determine its ability to reverse the cholinergic deficit characteristic of AD
T1 sequence (P22303 whole entry): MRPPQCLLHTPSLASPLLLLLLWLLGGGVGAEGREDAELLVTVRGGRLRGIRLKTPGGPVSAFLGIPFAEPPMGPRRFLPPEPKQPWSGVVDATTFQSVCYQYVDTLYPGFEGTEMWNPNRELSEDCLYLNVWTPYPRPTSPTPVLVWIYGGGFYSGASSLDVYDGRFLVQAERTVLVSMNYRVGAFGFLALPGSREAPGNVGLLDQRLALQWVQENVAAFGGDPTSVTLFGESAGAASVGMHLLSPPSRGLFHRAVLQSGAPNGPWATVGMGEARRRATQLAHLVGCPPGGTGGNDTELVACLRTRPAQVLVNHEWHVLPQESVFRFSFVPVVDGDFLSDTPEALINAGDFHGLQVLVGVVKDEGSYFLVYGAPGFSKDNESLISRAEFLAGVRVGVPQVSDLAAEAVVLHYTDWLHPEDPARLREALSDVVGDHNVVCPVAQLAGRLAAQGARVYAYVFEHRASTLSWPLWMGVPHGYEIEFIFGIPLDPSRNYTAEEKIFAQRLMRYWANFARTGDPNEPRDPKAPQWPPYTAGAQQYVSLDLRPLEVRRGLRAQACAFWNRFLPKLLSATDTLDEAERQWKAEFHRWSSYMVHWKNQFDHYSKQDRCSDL

Cholinesterase = Cholinesterase (Homo sapiens, UniProt P06276)
Sequence of Cholinesterase (P06276 whole entry): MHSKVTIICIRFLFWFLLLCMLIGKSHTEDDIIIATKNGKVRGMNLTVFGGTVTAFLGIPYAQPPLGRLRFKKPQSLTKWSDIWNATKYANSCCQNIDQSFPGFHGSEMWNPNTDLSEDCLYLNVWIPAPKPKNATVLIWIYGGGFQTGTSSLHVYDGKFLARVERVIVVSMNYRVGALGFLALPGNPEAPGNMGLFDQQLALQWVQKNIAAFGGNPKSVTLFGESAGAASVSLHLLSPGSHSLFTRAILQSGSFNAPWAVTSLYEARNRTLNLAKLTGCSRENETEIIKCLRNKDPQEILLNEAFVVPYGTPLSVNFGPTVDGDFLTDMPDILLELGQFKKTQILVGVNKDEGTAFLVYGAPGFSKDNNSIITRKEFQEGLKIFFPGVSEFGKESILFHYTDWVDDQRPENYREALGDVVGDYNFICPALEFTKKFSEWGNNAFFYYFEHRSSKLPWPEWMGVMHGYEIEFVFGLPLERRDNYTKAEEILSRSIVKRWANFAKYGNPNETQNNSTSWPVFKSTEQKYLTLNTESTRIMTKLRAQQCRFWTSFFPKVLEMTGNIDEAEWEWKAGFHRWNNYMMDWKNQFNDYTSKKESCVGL
Description: In vitro inhibition of human butryl cholinesterase.

Acetylcholinesterase [2] = biological target: T1, Acetylcholinesterase
Description: In vitro inhibition of human acetylcholinesterase.

[3] = biological target: T2, Muscarinic acetylcholine receptor M2 (Mus musculus, UniProt Q9ERZ4); experiment: biochemical
T2 sequence (Q9ERZ4 whole entry): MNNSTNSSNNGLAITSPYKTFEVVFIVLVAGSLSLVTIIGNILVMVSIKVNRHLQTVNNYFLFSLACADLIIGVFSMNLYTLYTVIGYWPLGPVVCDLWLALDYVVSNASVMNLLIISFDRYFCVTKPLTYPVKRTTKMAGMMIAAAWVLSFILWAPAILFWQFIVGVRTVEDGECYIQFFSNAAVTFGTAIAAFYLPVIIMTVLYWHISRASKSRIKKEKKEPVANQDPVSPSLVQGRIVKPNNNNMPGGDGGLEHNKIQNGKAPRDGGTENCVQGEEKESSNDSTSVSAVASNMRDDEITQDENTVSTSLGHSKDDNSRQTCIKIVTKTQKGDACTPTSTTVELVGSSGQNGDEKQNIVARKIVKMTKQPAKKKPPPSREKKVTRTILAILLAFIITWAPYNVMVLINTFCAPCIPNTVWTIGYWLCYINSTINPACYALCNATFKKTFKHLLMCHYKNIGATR

Rattus norvegicus [4] = organism: Rattus norvegicus; experiment: Ratio of IC50 (muscarinic acetylcholine receptor M2) to IC50 (muscarinic acetylcholine receptor M1)
Mus musculus [5] = experiment: Effect on brain acetylcholine concentration in mice after intraperitoneal administration of 80% lethal dose (140 mg/kg); assay type: functional
Mus musculus [6] = experiment: Effect on brain acetylcholine concentration in mice after intraperitoneal administration of 40% lethal dose (68 mg/kg); assay type: functional
[7] = biological target: T3, Muscarinic acetylcholine receptor M2 (Rattus norvegicus, UniProt P10980)
T3 sequence (P10980 whole entry): T2 sequence (Q9ERZ4 whole entry) with G270V, K316R, R321K, T331A, A336V
Description: Inhibition of [3H]N-methylscopolamine to rat muscarinic acetylcholine receptor M2 from heart tissue

[8] = biological target: T4, Muscarinic acetylcholine receptor M1 (Mus musculus, UniProt P12657); experiment: biochemical
T4 sequence (P12657 whole entry): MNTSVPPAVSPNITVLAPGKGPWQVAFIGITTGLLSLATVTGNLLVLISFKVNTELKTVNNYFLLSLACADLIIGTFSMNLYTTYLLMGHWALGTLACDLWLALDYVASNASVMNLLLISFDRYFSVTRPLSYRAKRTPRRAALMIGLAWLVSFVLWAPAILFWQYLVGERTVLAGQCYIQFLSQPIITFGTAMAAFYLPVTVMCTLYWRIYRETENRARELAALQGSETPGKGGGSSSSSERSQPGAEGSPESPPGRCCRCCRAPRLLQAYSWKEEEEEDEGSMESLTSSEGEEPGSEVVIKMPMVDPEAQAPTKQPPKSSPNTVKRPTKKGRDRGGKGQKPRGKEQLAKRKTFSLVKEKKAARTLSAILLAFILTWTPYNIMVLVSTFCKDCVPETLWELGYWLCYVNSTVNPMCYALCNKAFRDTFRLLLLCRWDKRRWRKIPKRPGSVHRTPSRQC
Description: Binding affinity against mouse muscarinic acetylcholine receptor M1 using cerebral cortex and [3H]pirenzepine

Mus musculus [9] = experiment: Effect on brain acetylcholine concentration in mice after intraperitoneal administration of 60% lethal dose (102 mg/kg); assay type: functional
Rattus norvegicus [10] = organism: Rattus norvegicus
[11] = biological target: T2, Muscarinic acetylcholine receptor M2; experiment: biochemical; remark: listed apart in the source
[12] = biological target: Cholinesterases; ACHE & BCHE (Homo sapiens) (UniProt P06276+P22303); experiment: Ratio of IC50(BChE-I) to IC50(AChE-I); assay type: protein assay
Sequence of Cholinesterases; ACHE & BCHE (Homo sapiens) (P06276 whole entry, looked up): as the sequence (P06276 whole entry) above
Sequence of Cholinesterases; ACHE & BCHE (Homo sapiens) (P22303 whole entry, looked up): as the sequence (P22303 whole entry) above

[13] = biological target: T4, Muscarinic acetylcholine receptor M1; experiment: biochemical; remark: listed apart in the source
Description: Inhibition of [3H]pirenzepine binding to mouse muscarinic acetylcholine receptor M1 from cerebral cortex

[14] = biological target: T3, Muscarinic acetylcholine receptor M2; experiment: Binding affinity against rat muscarinic acetylcholine receptor M2 using heart tissue and [3H]N-methylscopolamine
Rattus norvegicus [15] = organism: Rattus norvegicus; experiment: Concentration required to potentiate the contraction of isolated rat ileum produced by 1 x 10 e -7 M Ach by 20 %; inactive; assay type: functional
[16] = biological target: T4, Muscarinic acetylcholine receptor M1; experiment: biochemical; remark: listed apart in the source
Description: Binding affinity against mouse Muscarinic acetylcholine receptor M1 using cerebral cortex and [3H]pirenzepine

Mus musculus [17] = experiment: Effect on brain acetylcholine concentration in mice after intraperitoneal administration of 40% lethal dose (68 mg/kg; assay type: functional
Mus musculus [18] = experiment: Effect on brain acetylcholine concentration in mice after intraperitoneal administration of 80% lethal dose (170 mg/kg); assay type: functional
Mus musculus [19] = experiment: Effect on brain acetylcholine concentration in mice after intraperitoneal administration of 80% lethal dose (80 mg/kg)(***: p <= 0.001); assay type: functional
Mus musculus [20] = experiment: Effect on brain acetylcholine concentration in mice after intraperitoneal administration of 60% lethal dose (66 mg/kg); assay type: functional
[21] = biological target: T2, Muscarinic acetylcholine receptor M2; experiment: Ability to displace [3H]methylscopolamine ([3H]NMS) from mouse cerebral cortex; assay type: tissue-based
[22] = biological target: T2, Muscarinic acetylcholine receptor M2; experiment: Ability to displace [3H]oxotremorine ([3H]OXO-M) from mouse cerebral cortex; assay type: tissue-based

Row | Structure (SMILES) | IC50 (Cholinesterase) [nM] | IC50 (Acetylcholinesterase [2]) [nM] | Ratio (Rattus norvegicus [4]) | IC50 [7] [nM] | Ileal activity (Rattus norvegicus [10]) [µM] | Ratio [12] | IC50 [13] [nM] | also measured
1 | CN(C)Cc1ccc(CSCCNc2cccc(F)c2C#N)o1 |  |  |  |  |  |  |  | IC50 (Acetylcholinesterase [1]): 2100 nM
2 | CN(C)Cc1ccc(CSCCNc2cc(Nc3ncccc3[N+](=O)[O-])c([N+](=O)[O-])cc2[N+](=O)[O-])o1 | 18000 | 650 |  |  |  |  |  | 
3 | CN(C)Cc1ccc(CSCCNc2ccc([N+](=O)[O-])cc2[N+](=O)[O-])o1 | 1800 | 200 | 4.1 | 5700 | <0.02 | 9.2 |  | Ki [3]: 870 nM; % of control (Mus musculus [5]): 128.4%; % of control (Mus musculus [6]): 110.8%; IC50 [8]: 1400 nM; % of control (Mus musculus [9]): 120.4%; Ki [11]: 12000 nM
4 | CCCNc1cc(NCCSCc2ccc(CN(C)C)o2)c([N+](=O)[O-])cc1[N+](=O)[O-] | 3800 | 260 | 1.1 |  | <1 | 15 | 3200 | IC50 [14]: 3500 nM
5 | CN(C)Cc1ccc(CSCCNc2cc(Nc3ccccc3)c([N+](=O)[O-])cc2[N+](=O)[O-])o1 | 1600 | 640 | 1 | 6400 |  | 2.5 | 6400 | Ileal activity (Rattus norvegicus [15]): inactive
6 | CN(C)Cc1ccc(CSCCNc2cc(Nc3ccc(F)cc3)c([N+](=O)[O-])cc2[N+](=O)[O-])o1 | 1100 | 680 | 2.1 | 4400 | <0.01 | 1.6 | 2100 | 
7 | CN(C)Cc1ccc(CSCCNc2nnccc2[N+](=O)[O-])o1 |  |  |  |  | <0.1 |  |  | IC50 (Acetylcholinesterase [1]): 470 nM; IC50 [16]: 970 nM
8 | O=C1CCCN1CC#CCN1CCCC1 [OXOTREMORINE] |  |  |  |  |  |  |  | Ki [3]: 1.7 nM; Ki [11]: 1500 nM
9 | CN(C)Cc1ccc(CSCCNc2ccc(F)cc2[N+](=O)[O-])o1 | 3300 | 650 | 0.6 | 2400 |  | 5.1 | 4000 | Ileal activity (Rattus norvegicus [15]): inactive
10 | CN(C)Cc1ccc(CSCCNc2cc(NCc3ccccn3)c([N+](=O)[O-])cc2[N+](=O)[O-])o1 | 5200 | 1300 | 1.6 | 2400 | <1 | 4.1 | 1500 | 
11 | CCCCCNc1cc(NCCSCc2ccc(CN(C)C)o2)c([N+](=O)[O-])cc1[N+](=O)[O-] |  | 1200 |  |  |  |  |  | 
12 | CN(C)Cc1ccc(CSCCNc2cc(NN)c([N+](=O)[O-])cc2[N+](=O)[O-])o1 | 5100 | 76 | 1.2 | 4700 | <0.1 | 67 | 3800 | Ki [3]: 1100 nM; % of control (Mus musculus [17]): 110%; % of control (Mus musculus [9]): 128.8%; Ki [11]: 12000 nM; % of control (Mus musculus [18]): 126.8%
13 | CN(C)Cc1ccc(CSCCNc2cc(N)c([N+](=O)[O-])cc2[N+](=O)[O-])o1 | 2400 | 83 | 1.8 |  | <0.1 | 28 | 3800 | Ki [3]: 460 nM; IC50 [14]: 6800 nM; % of control (Mus musculus [19]): 153.2%; % of control (Mus musculus [20]): 126.8%; Ki [11]: 9500 nM
14 | CNC(=O)Oc1ccc2c(c1)[C@]1(C)CCN(C)[C@@H]1N2C [PHYSOSTIGMINE] |  |  |  | 160000 | <0.005 |  |  | 
15 | CN(C)CCNc1cc(NCCSCc2ccc(CN(C)C)o2)c([N+](=O)[O-])cc1[N+](=O)[O-] | 1400 | 520 | 0.57 | 380 | <0.01 | 2.8 | 670 | 
16 | CN(C)Cc1ccc(CSCCNc2cc(NCc3cccnc3)c([N+](=O)[O-])cc2[N+](=O)[O-])o1 | 6100 | 310 | 1.1 | 400 |  | 19 | 380 | Ileal activity (Rattus norvegicus [15]): inactive
17 | CC(C)=NNc1cc(NCCSCc2ccc(CN(C)C)o2)c([N+](=O)[O-])cc1[N+](=O)[O-] | 8400 | 440 | 1.1 | 3500 | <0.1 | 19 | 3100 | 
18 | CN(C)Cc1ccc(CSCCNc2cc(Oc3ccc([N+](=O)[O-])cc3)c([N+](=O)[O-])cc2[N+](=O)[O-])o1 | 1100 | 270 |  |  |  |  |  | 
19 | CN(C)Cc1ccc(CSCCNc2cc(F)c([N+](=O)[O-])cc2[N+](=O)[O-])o1 | 3800 | 120 | 3.9 | 7000 | <0.01 | 33 | 1800 | 
20 | CNc1cc(NCCSCc2ccc(CN(C)C)o2)c([N+](=O)[O-])cc1[N+](=O)[O-] | 3300 | 160 | 7.2 |  |  | 21 | 430 | Ileal activity (Rattus norvegicus [15]): inactive; IC50 [14]: 3100 nM
21 | CN(C)Cc1ccc(CSCCNc2cc(NCCCN3CCOCC3)c([N+](=O)[O-])cc2[N+](=O)[O-])o1 | 4700 | 370 | 0.57 | 300 | <0.1 | 13 | 530 | 
22 | CN(C)Cc1ccc(CSCCNc2cc(Nc3ccccc3C#N)c([N+](=O)[O-])cc2[N+](=O)[O-])o1 | 1800 | 630 | 1.1 | 3700 |  | 2.8 | 3300 | Ileal activity (Rattus norvegicus [15]): inactive
23 | C[N+](C)(C)CCOC(N)=O [CARBACHOL] |  |  |  |  |  |  |  | Ki [21]: 66000 nM; Ki [22]: 8 nM
24 | CN(C)Cc1ccc(CSCCNc2cc(NCc3ccccc3)c([N+](=O)[O-])cc2[N+](=O)[O-])o1 |  |  | 1.7 | 3300 |  |  | 2000 | Ileal activity (Rattus norvegicus [15]): inactive
